In data set [1] the test system is HEK-293 (ATCC CRL-1573) cells. The data set is described as follows: Inhibition of cell proliferation assay (MTS). The class given is cell-based. The following applies: for IC50: HEK-293 cells 5×10^3, EMEM + 10% FBS, 28 h, MTS, A490, linear regression, maximum peptide concentration = 1000 µM; for Therapeutic Index (proliferation): IC50/MDC50 (F. nucleatum), given as x : 1. The protocol: After 28 h, 20 μL of 3-(4,5-dimethylthiazol-2-yl)-5-(3-carboxymethoxyphenyl)-2-(4-sulfophenyl)-2H-tetrazolium (MTS) solution (CellTiter 96 AQueous Non-Radioactive Cell Proliferation Assay kit, Promega) were added to each well and the plates were incubated for a further 1–2 h at 37°C, 5% CO2 incubator. Cell proliferation was determined by measuring absorbance at 490 nm using a microplate reader (PerkinElmer 1420 Multilabel Counter VICTOR3). Positive and negative controls for inhibition were taken as HEK-293 cells incubated with mytomycin C (5 μg/mL, Sigma Pty Ltd) and HEK-293 cells incubated in media alone, respectively. The percentage of inhibition was calculated using the following formula: % Inhibition = [(A490 test sample—A490 negative control) / (A490 positive control—A490 negative control)] × 100
The percentage of inhibition was plotted against peptide concentration and linear regression analysis was used to determine the AMP concentration needed to inhibit 50% (IC50) of the HEK-293 cells.

For data set [2], the system named is S. mutans Ingbritt. From the text: (§1) The bacterial strains; Fusobacterium nucleatum ATCC 25586, Streptococcus mutans Ingbritt, Staphylococcus aureus (MSSA) ATCC 29213; Staphylococcus aureus (MRSA) ATCC 43300; Enterococcus faecalis ATCC 29212; Enterobacter aerogenes ATCC 13048; Pseudomonas aeruginosa strain PAO1-LAC, ATCC 47085; Klebsiella pneumoniae ATCC 13883; Acinetobacter baumannii strain 2208, ATCC 19606; Escherichia coli ATCC 25922 lyophilised or glycerol stocks were obtained from the culture collection of the Oral Health Cooperative Research Centre, The Melbourne Dental School, University of Melbourne, Australia. These strains were selected for this study as they are widely used in antimicrobial studies and are considered to be important pathogens and major targets for antibiotic resistant studies. Bacteria were grown aerobically and maintained by passage at ambient temperature (E. coli, K. pneumoniae, A. baumannii and S. aureus strains) or at 37°C (P. aeruginosa, E. faecalis and E. aerogenes) on horse blood agar (10% v/v defibrinated horse blood, 4.4% w/v Oxoid Blood Agar Base No. 2). S. mutans and F. nucleatum were grown anaerobically (MK3 anaerobic workstation, Don Whitley Scientific Limited, England) and maintained by passage at 37°C on Todd Hewitt agar (3.6% w/v Oxoid Todd-Hewitt Broth, 1.5% w/v sucrose, 1.5% w/v BactoTM Agar, 0.8% w/v Oxoid Yeast Extract) or horse blood agar, respectively. For the antimicrobial peptide assays a 20 mL starter culture was produced by taking single colonies from blood or Todd Hewitt agar plates, respectively, to inoculate either: Luria Broth (LB; 1% w/v BactoTM Tryptone, 1% w/v NaCl, 0.5% w/v Oxoid Yeast Extract, pH 7.5, Thermo Scientific Pty, Ltd, Sydney, Australia) for bacteria; E. coli, K. pneumoniae, P. aeruginosa, A. baumannii, E. faecalis, E. aerogenes and S. aureus which were grown aerobically at 37°C, or Todd Hewitt broth (3.6% w/v Oxoid Todd-Hewitt Broth, 1.5% w/v sucrose, 0.8% w/v Oxoid Yeast 9 Extract) for S. mutans, or Brain Heart Infusion broth (BHI; 3.7% w/v Oxoid BHI, 0.05% w/v L-cysteine) for F. nucleatum which were both grown anaerobically at 37°C. After overnight incubation, 0.5–2.0 mL of the starter culture was used to inoculate the appropriate fresh broth (200 mL) and growth monitored at 650 nm using a spectrophotometer (model 275E; Perkin-Elmer, Sydney, Australia) with culture purity checked by microscopic examination and culture. Bacteria were harvested during late exponential growth phase and viability and bacteria/mL determined using a BacLight viability kit (Invitrogen, Sydney, Australia) and a Quanta SC-MPL flow cytometer (Beckman coulter Pty, Ltd, Sydney, Australia).
(§2) Antibacterial assays were undertaken to determinate the minimum inhibitory concentration (MIC), minimum bactericidal concentration (MBC) and minimum membrane disruptive concentration (MDC) of each of the antimicrobial peptides (AMP) and AMP analogues (S1 Table). For each bacterim a stock solution (2.5 × 10^6 cells/mL) in the respective media was made and an aliquot incubated with AMPs within 15 minutes from viable cell count and stock preparation. All AMPs were dissolved in DMSO and a 500 μM stock solution prepared by adding the respective media and serial dilutions (250–0.244 μM) of the AMP in media (100 μL/well) made just prior addition of bacteria. […] One hundred microliter aliquots of the bacterial stock solution (2.5 × 10^5 cells/well) were added to the AMP serial dilutions and incubated at 37°C for 90 min. Assay preparation and incubations were conducted in aerobic or anaerobic conditions dependent on the bacteria. Bacteria were also incubated in the absence of AMP to serve as a growth control for the assay. After the 90 minute incubation period the antimicrobial activity (MIC, MBC and MDC) was determined as follows;
(§3) For determination of MBC, the CLSI protocol was followed, with the modifications being that due to the rapid action of the AMPs the assay incubation time was shortened from 16–20 hours to 90 minutes.

The subject of data set [3] is S. mutans Ingbritt.
Text: as §1, §2
(§4) For MIC the CLSI broth microdilution assay was followed as we have previously described.
The source holds these as a separate data set.

Data set [4] relates to F. nucleatum ATCC 25586.
Text: as §1, §2, §4

For data set [5], the system named is F. nucleatum ATCC 25586.
Text: as §1, §2, §3
This is another data set of the same source.

Where [6] appears, read: F. nucleatum ATCC 25586, 2.5 × 10^5 cells/well, 90 min peptide/bacteria incubation at 37°C, then growth at OD650, average of 3 assays ± SD.
Where [7] appears, read: S. mutans Ingbritt, 90 min peptide/bacteria incubation, CFU on agar, ≥ 99.9% reduction, average of 3 assays ± SD.
[8] abbreviates: F. nucleatum ATCC 25586, 90 min peptide/bacteria incubation, CFU on agar, ≥ 99.9% reduction, average of 3 assays ± SD.
[9] abbreviates: S. mutans Ingbritt, 90 min peptide/bacteria incubation at 37°C, then growth at OD650, average of 3 assays ± SD.

Converted amounts (≈) assume the structure as drawn. Where two headings read alike, the source gives them in different places. Marks after values point to notes of the source that are not given here. Where a SMILES comes first, the peptide text is derived from it. Where no end group is shown, it is not given here. [ ]: non-standard residue; d: D form. Phe(ol) = N[C@H](CO)Cc1ccccc1; Dab = NCC[C@H](N)C(=O)O; Dap = NC[C@H](N)C(=O)O; Aib = CC(C)(N)C(=O)O Bounds are passed on as bounds.

As to `CC[C@H](C)[C@H](NC(=O)CN)C(=O)NCC(=O)N[C@@H](CCN)C(=O)N[C@@H](Cc1ccccc1)C(=O)N[C@@H](CC(C)C)C(=O)N[C@@H](Cc1c[nH]cn1)C(=O)N[C@@H](CO)C(=O)N[C@@H](C)C(=O)N[C@@H](CCN)C(=O)N[C@@H](CCN)C(=O)N[C@@H](Cc1ccccc1)C(=O)NCC(=O)N[C@@H](CCN)C(=O)N[C@@H](C)C(=O)N[C@@H](Cc1ccccc1)C(=O)N[C@H](C(=O)NCC(=O)N[C@@H](CCC(=O)O)C(=O)N[C@H](C(=O)N[C@@H](CCSC)C(=O)N[C@@H](CC(N)=O)C(=O)N[C@@H](CO)C(N)=O)[C@@H](C)CC)C(C)C` [Magainin-Dab] (H-GIG[Dab]FLHSA[Dab][Dab]FG[Dab]AFVGEIMNS-NH2; N-terminus assumed), in data set [1], the concentration for half-maximal inhibition (IC50) – broadly, the concentration at which inhibition is half-maximal – amounted to 178 ± 39.4 µM and the “Therapeutic Index (proliferation)” value was 32.4 : 1. Also, the MBC (in general, the smallest concentration meeting the test's criterion for killing) in the data set with S. mutans Ingbritt [2] (Ingbritt) was >200^c μM. For the same compound, the MIC (commonly the least concentration at which growth counts as inhibited) with S. mutans Ingbritt [3] (Ingbritt, 24 h) is reported as >200^c μM. For the same compound, the minimum inhibitory concentration (MIC) in the data set with F. nucleatum ATCC 25586 [4] (setting [6]) is 6.3 ± 0.5 µM (≈ 14.8 µg/mL).

With `CC(=O)NC(C)(C)C(=O)N1CCC[C@H]1C(=O)NC(C)(C)C(=O)N[C@@H](C)C(=O)NC(C)(C)C(=O)N[C@@H](C)C(=O)N[C@@H](CCC(N)=O)C(=O)NC(C)(C)C(=O)N[C@H](C(=O)NC(C)(C)C(=O)NCC(=O)N[C@@H](CC(C)C)C(=O)NC(C)(C)C(=O)N1CCC[C@H]1C(=O)N[C@H](C(=O)NC(C)(C)C(=O)NC(C)(C)C(=O)N[C@@H](CCC(=O)O)C(=O)N[C@@H](CCC(N)=O)C(=O)N[C@H](CO)Cc1ccccc1)C(C)C)C(C)C` [Alamethicin] (Ac-[Aib]P[Aib]A[Aib]AQ[Aib]V[Aib]GL[Aib]PV[Aib][Aib]EQ[Phe(ol)]; N-terminus assumed), the figures for the MBC against S. mutans Ingbritt [2] (setting [7]) and in the data set with F. nucleatum ATCC 25586 [5] (setting [8]) were 39.8 ± 0.3 µM (≈ 78.2 µg/mL) and 18.0 ± 3.9 µM (≈ 35.4 µg/mL), respectively. Also, the values for the minimum inhibitory concentration (MIC) with S. mutans Ingbritt [3] (setting [9]) and against F. nucleatum ATCC 25586 [4] (setting [6]) were 29.4 ± 8.2 µM (≈ 57.8 µg/mL) and 22.6 ± 12.7 µM (≈ 44.4 µg/mL), respectively.

Regarding “GIGKFLHSAKKFGKAFVGEIMNS-NH2 [Magainin II]”, in data set [1], the 50% inhibitory concentration (IC50) was found to be 95.2 ± 32.2 µM. Besides, the “Therapeutic Index (proliferation)” value in data set [1] was 20.2 : 1. The MBC came out at 109 ± 20.2 µM in the data set with S. mutans Ingbritt [2] (setting [7]); 117.1 ± 2.3 µM in the data set with S. mutans Ingbritt [2] (S. mutans Ingbritt, 90 min peptide/bacteria incubation, CFU on agar, ≥ 99.9% reduction, average of 3 assays ± SD, listed as Native); 8.1 ± 1.3 µM in the data set with F. nucleatum ATCC 25586 [5] (setting [8]); 7.3 ± 1.0 µM against F. nucleatum ATCC 25586 [5] (F. nucleatum ATCC 25586, 90 min peptide/bacteria incubation, CFU on agar, ≥ 99.9% reduction, average of 3 assays ± SD, listed as Native). The minimal inhibitory concentration (MIC) in the data set with S. mutans Ingbritt [3] (setting [9]) was 109.3 ± 20.4 µM; with S. mutans Ingbritt [3] (S. mutans Ingbritt, 90 min peptide/bacteria incubation at 37°C, then growth at OD650, average of 3 assays ± SD, listed as Native) it was 123.4 ± 9.2 µM; in the data set on F. nucleatum ATCC 25586 [4] (setting [6]) it was 10.2 ± 1.5 µM; against F. nucleatum ATCC 25586 [4] (F. nucleatum ATCC 25586, 2.5 × 10^5 cells/well, 90 min peptide/bacteria incubation at 37°C, then growth at OD650, average of 3 assays ± SD, listed as Native), 10.1 ± 0.6 µM.

As for “GIGRFLHSARRFGRAFVGEIMNS-NH2 [Magainin-Arg]”, in data set [1], the half-inhibitory concentration (IC50) came to 64.5 ± 3 µM. In addition, in data set [1], the “Therapeutic Index (proliferation)” value is reported as 25.8 : 1. Besides, the results for the minimal bactericidal concentration (MBC) in the data set on S. mutans Ingbritt [2] (Ingbritt) and against F. nucleatum ATCC 25586 [5] (ATCC 25586) were 37.3±1.9^c μM and 2.5±0.8^c μM, respectively. Also, the minimal inhibitory concentration (MIC) is 41.8±6.8^c μM in the data set with S. mutans Ingbritt [3] (Ingbritt, 24 h) and 2.5±0.3^c μM against F. nucleatum ATCC 25586 [4] (ATCC 25586, 24 h).

In the case of “GIGXFLHSAXXFGXAFVGEIMNS-CONH2 [Magainin-Orn]”, in data set [1], the half-inhibitory concentration (IC50) amounted to 168 ± 42.1 µM. The “Therapeutic Index (proliferation)” value in data set [1] is 29.4 : 1. The minimal bactericidal concentration (MBC) is >200^c μM against S. mutans Ingbritt [2] (setting [7]) and 14.9 ± 0.2 µM against F. nucleatum ATCC 25586 [5] (setting [8]). In addition, the values for the MIC in the data set on S. mutans Ingbritt [3] (setting [9]) and with F. nucleatum ATCC 25586 [4] (setting [6]) were >200^c μM and 13.1 ± 0.5 µM, respectively.

With `CC[C@H](C)[C@H](NC(=O)CN)C(=O)NCC(=O)N[C@@H](CN)C(=O)N[C@@H](Cc1ccccc1)C(=O)N[C@@H](CC(C)C)C(=O)N[C@@H](Cc1c[nH]cn1)C(=O)N[C@@H](CO)C(=O)N[C@@H](C)C(=O)N[C@@H](CN)C(=O)N[C@@H](CN)C(=O)N[C@@H](Cc1ccccc1)C(=O)NCC(=O)N[C@@H](CN)C(=O)N[C@@H](C)C(=O)N[C@@H](Cc1ccccc1)C(=O)N[C@H](C(=O)NCC(=O)N[C@@H](CCC(=O)O)C(=O)N[C@H](C(=O)N[C@@H](CCSC)C(=O)N[C@@H](CC(N)=O)C(=O)N[C@@H](CO)C(N)=O)[C@@H](C)CC)C(C)C` [Magainin-Dap] (H-GIG[Dap]FLHSA[Dap][Dap]FG[Dap]AFVGEIMNS-NH2; N-terminus assumed), the concentration for half-maximal inhibition (IC50) in data set [1] amounted to 285 ± 19.4 µM. Moreover, in data set [1], the “Therapeutic Index (proliferation)” value is 19.1 : 1. For the same compound, the minimal bactericidal concentration (MBC) in the data set on S. mutans Ingbritt [2] (Ingbritt) is reported as >200^c μM; against F. nucleatum ATCC 25586 [5] (ATCC 25586), 29.7±0.4^c μM. Further, the MIC in the data set with S. mutans Ingbritt [3] (Ingbritt, 24 h) is given as >200^c μM; with F. nucleatum ATCC 25586 [4] (ATCC 25586, 24 h), 18.4±9.7^c μM.

These data come from publication PMC4795541, “A Rapid and Quantitative Flow Cytometry Method for the Analysis of Membrane Disruptive Antimicrobial Activity” (PLoS ONE, 2016).
